# Assay results from PubChem BioAssay (NCI).
#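 How tested: cells in 96-well plates exposed to compound for 48 hours at five concentrations. TGI: total growth inhibition.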
# Experiments:
# Test in all cases: DTP human tumour cell line panel, 48 h
# DU-145 prostate = tested on: DU-145 prostate
# SNB-19 CNS = tested on: SNB-19 CNS
# A498 renal = tested on: A498 renal
# LOX IMVI melanoma = tested on: LOX IMVI melanoma
# HCT-116 colon = tested on: HCT-116 colon
# MOLT-4 leukemia = tested on: MOLT-4 leukemia
# SK-MEL-2 melanoma = tested on: SK-MEL-2 melanoma
# HCC-2998 colon = tested on: HCC-2998 colon
# NCI-H23 lung = tested on: NCI-H23 lung
# A549 NSCLC = tested on: A549 NSCLC
# 786-0 renal = tested on: 786-0 renal
# OVCAR-5 ovarian = tested on: OVCAR-5 ovarian
# NCI-H522 lung = tested on: NCI-H522 lung
# HT29 colon = tested on: HT29 colon
# HL-60(TB) leukemia = tested on: HL-60(TB) leukemia
# M14 melanoma = tested on: M14 melanoma
# SF-268 CNS = tested on: SF-268 CNS
# SW-620 colon = tested on: SW-620 colon
# HOP-92 NSCLC = tested on: HOP-92 NSCLC
Structure (SMILES),TGI (DU-145 prostate) [µM],TGI (SNB-19 CNS) [µM],TGI (A498 renal) [µM],TGI (LOX IMVI melanoma) [µM],TGI (HCT-116 colon) [µM],TGI (MOLT-4 leukemia) [µM],TGI (SK-MEL-2 melanoma) [µM],TGI (HCC-2998 colon) [µM],TGI (NCI-H23 lung) [µM],TGI (A549 NSCLC) [µM],TGI (786-0 renal) [µM],TGI (OVCAR-5 ovarian) [µM],TGI (NCI-H522 lung) [µM],TGI (HT29 colon) [µM],TGI (HL-60(TB) leukemia) [µM],TGI (M14 melanoma) [µM],TGI (SF-268 CNS) [µM],TGI (SW-620 colon) [µM],TGI (HOP-92 NSCLC) [µM]
C[C@@H]1CC[C@H]2[C@H](C)C(OC3O[C@@H]4O[C@@]5(C)CC[C@H]6[C@H](C)CC[C@@H]([C@@H]3C)[C@@]46O5)O[C@@H]3O[C@@]4(C)CC[C@@H]1[C@]32O4 (stereo partly specified),> 100,> 100,> 100,> 100,> 100,> 100,> 100,> 100,> 100,> 100,> 100,> 100,> 100,> 100,> 100,> 100,> 100,> 100,–
COC(=O)c1ccc2c(c1)CC1(C2)Cc2ccccc2C1=O (stereo unspecified),> 100,> 100,> 100,57.4,69.4,34.4,69.8,> 100,> 100,> 100,> 100,> 100,> 100,36,56.9,38.6,> 100,> 100,82.9
O=C(NCCNCCNC(=O)c1cc(-c2ccccc2)nc2ccccc12)c1cc(-c2ccccc2)nc2ccccc12,6.56,24.3,6.54,3.05,3.18,5.52,3.13,3.14,22.3,9.13,3.39,4.91,6.97,3.24,5,3.12,9.55,3.25,6.17
COC(=O)[C@@](NC(=O)OCc1ccccc1)([C@H](C)O)C(F)(F)F,> 100,> 100,> 100,> 100,> 100,> 100,> 100,> 100,> 100,> 100,> 100,> 100,> 100,> 100,> 100,> 100,> 100,> 100,> 100
CN(N=O)c1nc2c(C(N)=O)ncn2s1,> 100,> 100,> 100,> 100,> 100,> 100,> 100,> 100,> 100,> 100,> 100,> 100,> 100,> 100,–,> 100,> 100,> 100,> 100
Cc1ccc2nc(NS(=O)(=O)c3cc(C)c(Cl)cc3S)[nH]c2c1,> 100,> 100,> 100,73.2,> 100,> 100,> 100,> 100,> 100,> 100,> 100,> 100,> 100,> 100,72.7,> 100,> 100,> 100,> 100
COc1cc2cc(C(=O)N3CC(CCl)c4ccc([N+](C)(C)Cc5ccccc5[N+](=O)[O-])cc43)[nH]c2c(OC)c1OC (stereo unspecified),> 100,9.76,1.37,17.1,> 100,2.74,4.44,9,4.9,> 100,> 36.3,> 31.3,0.677,> 21.8,> 100,19,9.1,> 75.9,> 29.8
Cc1c(/C=N/NC(=S)N2CCCCC2)c(=O)n(-c2ccccc2)n1C,> 100,> 100,> 100,> 100,> 100,> 100,–,> 100,> 100,> 100,> 100,> 100,> 100,> 100,95,> 100,> 100,> 100,> 100
Cc1sc2nc3n(c(=O)c2c1C)N=CN(c1ccc(Cl)cc1)C3,> 100,> 100,> 100,> 100,> 100,> 100,> 100,> 100,> 100,> 100,> 100,> 100,> 100,> 100,–,> 100,> 100,> 100,> 100
C=CCN1CCC(c2cc(C(=O)OCC)[nH]c2-c2cc(C)no2)C1=O (stereo unspecified),> 100,> 100,> 100,> 100,> 100,> 100,> 100,> 100,> 100,> 100,> 100,> 100,–,> 100,> 100,> 100,> 100,> 100,> 100
COC(=O)/C=C/[C@@H]1[C@H](C)N1S(=O)(=O)c1ccc(C)cc1 (stereo partly specified),> 100,> 100,> 100,> 100,> 100,> 100,> 100,> 100,> 100,> 100,> 100,> 100,> 100,> 100,> 100,> 100,> 100,> 100,–
O=c1[nH][nH]c(=O)c2c1ccc1oc3ccccc3c12,> 100,> 100,> 100,–,> 100,> 100,> 100,> 100,> 100,> 100,> 100,> 100,> 100,> 100,> 100,> 100,> 100,> 100,> 100
